Laboratory results: article PMC5218480 (PLoS ONE, 2017)

Tested on: MV-4-11 cells
Test: Gene expression microarray analysis (Affymetrix PrimeView) and GSEA
Type: cell-based, human
Set-up: RFU PODN (11730768_x_at) / Fold change /veh PODN (11730768_x_at) / RFU LINC00158 (11744669_a_at) / Fold change /veh LINC00158 (11744669_a_at) / RFU DUSP10 (11751237_a_at) / Fold change /veh DUSP10 (11751237_a_at) / RFU ID3 (11757404_x_at) / Fold change /veh ID3 (11757404_x_at) / RFU PLEKHG5 (11737974_s_at) / Fold change /veh PLEKHG5 (11737974_s_at) / RFU LRRC4B (11730491_at) / Fold change /veh LRRC4B (11730491_at) / RFU GIMAP4 (11747438_a_at) / Fold change /veh GIMAP4 (11747438_a_at) / RFU KRT8 (11758183_x_at) / Fold change /veh KRT8 (11758183_x_at) / RFU CNN1 (11734310_a_at) / Fold change /veh CNN1 (11734310_a_at) / RFU VPS37D (11726825_at) / Fold change /veh VPS37D (11726825_at) / RFU C10orf10 (11716522_x_at) / Fold change /veh C10orf10 (11716522_x_at) / RFU KIR2DL2 /// KIR2DL4 /// KIR2DL5A /// KIR2DL5B /// KIR2DS1 /// KIR2DS2 /// KIR2DS3 /// KIR2DS4 /// KIR3DL3 /// KIR3DL3 /// KIR3DS1 (11738374_at) / Fold change /veh KIR2DL2 /// KIR2DL4 /// KIR2DL5A /// KIR2DL5B /// KIR2DS1 /// KIR2DS2 /// KIR2DS3 /// KIR2DS4 /// KIR3DL3 /// KIR3DL3 /// KIR3DS1 (11738374_at) / RFU C1QL1 (11718748_at) / Fold change /veh C1QL1 (11718748_at) / RFU TMPRSS4 (11747572_a_at) / Fold change /veh TMPRSS4 (11747572_a_at) / RFU HAMP (11756126_x_at) / Fold change /veh HAMP (11756126_x_at) / RFU RNFT2 (11725882_a_at) / Fold change /veh RNFT2 (11725882_a_at) / RFU NR4A2 (11747474_a_at) / Fold change /veh NR4A2 (11747474_a_at) / RFU ABCC12 (11746883_a_at) / Fold change /veh ABCC12 (11746883_a_at) / RFU TMEM136 (11760407_x_at) / Fold change /veh TMEM136 (11760407_x_at) / RFU CLDN22 /// WWC2 (11732394_at) / Fold change /veh CLDN22 /// WWC2 (11732394_at) / RFU HLA-DPB1 (11760878_x_at) / Fold change /veh HLA-DPB1 (11760878_x_at) / RFU SPINT1 (11716480_a_at) / Fold change /veh SPINT1 (11716480_a_at) / RFU GAP43 (11754022_s_at) / Fold change /veh GAP43 (11754022_s_at) / RFU A4GNT (11735810_at) / Fold change /veh A4GNT (11735810_at) / RFU PRB3 (11715151_x_at) / Fold change /veh PRB3 (11715151_x_at) / RFU TUBB4B (11761932_at) / Fold change /veh TUBB4B (11761932_at) / RFU CAPN14 (11732068_a_at) / Fold change /veh CAPN14 (11732068_a_at) / RFU TMCC2 (11721928_a_at) / Fold change /veh TMCC2 (11721928_a_at) / RFU IRGQ (11745062_a_at) / Fold change /veh IRGQ (11745062_a_at) / RFU FAM174B (11720279_a_at) / Fold change /veh FAM174B (11720279_a_at) / RFU TMPRSS4 (11748680_a_at) / Fold change /veh TMPRSS4 (11748680_a_at) / RFU FAM212B (11763350_a_at) / Fold change /veh FAM212B (11763350_a_at) / RFU PLEKHG5 (11743358_a_at) / Fold change /veh PLEKHG5 (11743358_a_at) / RFU ZSCAN30 (11745921_a_at) / Fold change /veh ZSCAN30 (11745921_a_at) / RFU CMKLR1 (11741424_a_at) / Fold change /veh CMKLR1 (11741424_a_at) / RFU LOC101060620 /// MAPK8IP1 (11723275_at) / Fold change /veh LOC101060620 /// MAPK8IP1 (11723275_at) / RFU SPTSSB (11747773_x_at) / Fold change /veh SPTSSB (11747773_x_at) / RFU PRSS12 (11739890_at) / Fold change /veh PRSS12 (11739890_at) / RFU BIN1 (11741810_x_at) / Fold change /veh BIN1 (11741810_x_at) / RFU WNT11 (11732464_a_at) / Fold change /veh WNT11 (11732464_a_at) / RFU C10orf10 (11716521_a_at) / Fold change /veh C10orf10 (11716521_a_at) / RFU C5orf56 (11738089_at) / Fold change /veh C5orf56 (11738089_at) / RFU CYB561 (11721691_x_at) / Fold change /veh CYB561 (11721691_x_at) / RFU ANKRD19P (11752326_a_at) / Fold change /veh ANKRD19P (11752326_a_at) / RFU OR2T12 /// OR2T33 /// OR2T8 (11738714_s_at) / Fold change /veh OR2T12 /// OR2T33 /// OR2T8 (11738714_s_at) / RFU VCAN (11748164_a_at) / Fold change /veh VCAN (11748164_a_at) / RFU JSRP1 (11732532_at) / Fold change /veh JSRP1 (11732532_at) / RFU KRTAP10-11 (11738290_x_at) / Fold change /veh KRTAP10-11 (11738290_x_at) / RFU MYO3A (11730013_a_at) / Fold change /veh MYO3A (11730013_a_at) / RFU EBF3 (11725865_a_at) / Fold change /veh EBF3 (11725865_a_at) / RFU CAMK2N1 (11719241_x_at) / Fold change /veh CAMK2N1 (11719241_x_at) / RFU C5orf56 (11738088_a_at) / Fold change /veh C5orf56 (11738088_a_at) / RFU OLFML3 (11715873_a_at) / Fold change /veh OLFML3 (11715873_a_at) / RFU LOC100653217 /// NTM (11731650_a_at) / Fold change /veh LOC100653217 /// NTM (11731650_a_at) / RFU MAPK11 (11762145_a_at) / Fold change /veh MAPK11 (11762145_a_at) / RFU FIZ1 (11724087_x_at) / Fold change /veh FIZ1 (11724087_x_at) / RFU OASL (11726364_x_at) / Fold change /veh OASL (11726364_x_at) / RFU SOX15 (11748057_x_at) / Fold change /veh SOX15 (11748057_x_at) / RFU CD79A (11719716_a_at) / Fold change /veh CD79A (11719716_a_at) / RFU HIST1H1D (11736915_at) / Fold change /veh HIST1H1D (11736915_at) / RFU CASKIN2 (11723855_a_at) / Fold change /veh CASKIN2 (11723855_a_at) / RFU LOC730098 (11760151_x_at) / Fold change /veh LOC730098 (11760151_x_at) / RFU OR4N2 (11742367_at) / Fold change /veh OR4N2 (11742367_at) / RFU PRRT2 (11749266_a_at) / Fold change /veh PRRT2 (11749266_a_at) / RFU SNX32 (11753110_a_at) / Fold change /veh SNX32 (11753110_a_at) / RFU CDHR5 (11726645_a_at) / Fold change /veh CDHR5 (11726645_a_at) / RFU RCAN1 (11760418_a_at) / Fold change /veh RCAN1 (11760418_a_at) / RFU FAM167A (11723789_a_at) / Fold change /veh FAM167A (11723789_a_at) / RFU FAM26E (11764081_at) / Fold change /veh FAM26E (11764081_at) / RFU ISYNA1 (11749810_s_at) / Fold change /veh ISYNA1 (11749810_s_at) / RFU ACY1 (11761880_at) / Fold change /veh ACY1 (11761880_at) / RFU 11764098_at / Fold change /veh 11764098_at / RFU SAMD14 (11745864_x_at) / Fold change /veh SAMD14 (11745864_x_at) / RFU NPB (11741838_a_at) / Fold change /veh NPB (11741838_a_at) / RFU TMPRSS6 (11731388_a_at) / Fold change /veh TMPRSS6 (11731388_a_at) / RFU KRTAP10-2 (11738614_at) / Fold change /veh KRTAP10-2 (11738614_at) / RFU ARHGAP8 /// PRR5-ARHGAP8 (11727945_x_at) / Fold change /veh ARHGAP8 /// PRR5-ARHGAP8 (11727945_x_at) / RFU KRTAP5-7 /// NADSYN1 (11734609_at) / Fold change /veh KRTAP5-7 /// NADSYN1 (11734609_at) / RFU RASL12 (11751679_a_at) / Fold change /veh RASL12 (11751679_a_at) / RFU CDKN2B (11736163_a_at) / Fold change /veh CDKN2B (11736163_a_at) / RFU PRF1 (11729649_at) / Fold change /veh PRF1 (11729649_at) / RFU, ZNF638 /// ZNF638-IT1 / Fold change vs veh, ZNF638 /// ZNF638-IT1 / RFU, PANK3 / Fold change vs veh, PANK3 / RFU, SH3YL1 / Fold change vs veh, SH3YL1 / RFU, ZEB2 / Fold change vs veh, ZEB2 / RFU, NRIP1 / Fold change vs veh, NRIP1 / RFU, PTTG1IP / Fold change vs veh, PTTG1IP / RFU, CAPN2 / Fold change vs veh, CAPN2 / RFU, MED14 / Fold change vs veh, MED14 / RFU, SNORA58 / Fold change vs veh, SNORA58 / RFU, C1orf63 / Fold change vs veh, C1orf63 / RFU, LRRFIP1 / Fold change vs veh, LRRFIP1 / RFU, NDUFAF7 / Fold change vs veh, NDUFAF7 / RFU, SLC12A2 / Fold change vs veh, SLC12A2 / RFU, IBTK / Fold change vs veh, IBTK / RFU, ESF1 / Fold change vs veh, ESF1 / Fold change vs veh, TMEM50B / RFU, TAOK1 / Fold change vs veh, TAOK1 / RFU, ACBD3 / Fold change vs veh, ACBD3 / RFU, TMA16 / Fold change vs veh, TMA16 / RFU, RWDD3 / Fold change vs veh, RWDD3 / RFU, BCAT1 / Fold change vs veh, BCAT1 / RFU, EDEM3 / Fold change vs veh, EDEM3 / RFU, TMEM33 / Fold change vs veh, TMEM33 / RFU, WDR75 / Fold change vs veh, WDR75 / RFU, AHCTF1 / Fold change vs veh, AHCTF1 / RFU, TFRC / Fold change vs veh, TFRC / RFU, ZDHHC17 / Fold change vs veh, ZDHHC17 / RFU, NOM1 / Fold change vs veh, NOM1 / RFU, ARL8B / Fold change vs veh, ARL8B / RFU, ZBTB11 / Fold change vs veh, ZBTB11 / RFU, TAMM41 / Fold change vs veh, TAMM41 / RFU, KIAA1704 /// LOC100996395 / Fold change vs veh, KIAA1704 /// LOC100996395 / RFU, ING1 / Fold change vs veh, ING1 / RFU, TRMT61B / Fold change vs veh, TRMT61B / RFU, FUBP3 / Fold change vs veh, FUBP3 / RFU, TP53 / Fold change vs veh, TP53 / RFU, TNKS2 / Fold change vs veh, TNKS2 / RFU, ZFP14 / Fold change vs veh, ZFP14 / RFU, ACTR2 / Fold change vs veh, ACTR2 / RFU, PPP3R1 / Fold change vs veh, PPP3R1 / RFU, PIK3R1 / Fold change vs veh, PIK3R1 / RFU, HNRNPA1 / Fold change vs veh, HNRNPA1 / RFU, RNF170 / Fold change vs veh, RNF170 / RFU, ZNF28 / Fold change vs veh, ZNF28 / RFU, RNGTT / Fold change vs veh, RNGTT / RFU, OGT / Fold change vs veh, OGT / RFU, BRD1 / Fold change vs veh, BRD1 / RFU, MARS / Fold change vs veh, MARS / RFU, ZNF655 / Fold change vs veh, ZNF655 / RFU, FAHD1 / Fold change vs veh, FAHD1 / RFU, BDP1 / Fold change vs veh, BDP1 / RFU, LRRCC1 / Fold change vs veh, LRRCC1 / RFU, ARID1A / Fold change vs veh, ARID1A / RFU, ZNF146 / Fold change vs veh, ZNF146 / RFU, ZNF330 / Fold change vs veh, ZNF330 / RFU, GPN3 / Fold change vs veh, GPN3 / RFU, C9orf123 / Fold change vs veh, C9orf123 / RFU, N4BP2L2 / Fold change vs veh, N4BP2L2 / RFU, ARFIP1 / Fold change vs veh, ARFIP1 / RFU, FAM179B / Fold change vs veh, FAM179B / RFU, BCL10 / Fold change vs veh, BCL10 / RFU, UHRF1BP1L / Fold change vs veh, UHRF1BP1L / RFU, BET1 / Fold change vs veh, BET1 / RFU, CNOT2 / Fold change vs veh, CNOT2 / RFU, ZNF268 / Fold change vs veh, ZNF268 / Fold change vs veh, ZNF507 / RFU, DGCR2 / Fold change vs veh, DGCR2 / RFU, WDSUB1 / Fold change vs veh, WDSUB1 / Fold change vs veh, HSP90B1 /// MIR3652 / RFU, ADSS / Fold change vs veh, ADSS / RFU, GK / Fold change vs veh, GK / RFU, ZNF148 / Fold change vs veh, ZNF148 / RFU, TAF9 / Fold change vs veh, TAF9 / RFU, SLC1A5 / Fold change vs veh, SLC1A5 / RFU, SLMO2 / Fold change vs veh, SLMO2 / RFU, ABCC4 / Fold change vs veh, ABCC4 / RFU, LOC101060439 /// RAP1B / Fold change vs veh, LOC101060439 /// RAP1B / RFU, RFX7 / Fold change vs veh, RFX7 / RFU, GTPBP10 / Fold change vs veh, GTPBP10 / RFU, CNEP1R1 / Fold change vs veh, CNEP1R1 / RFU, BIVM-ERCC5 /// ERCC5 / Fold change vs veh, BIVM-ERCC5 /// ERCC5 / RFU, ILF3 / Fold change vs veh, ILF3 / RFU 11762660_at / Fold change /veh 11762660_at / RFU VCAN (11757783_s_at) / Fold change /veh VCAN (11757783_s_at) / RFU DDX43 (11728927_at) / Fold change /veh DDX43 (11728927_at) / RFU KRT8 (11758188_x_at) / Fold change /veh KRT8 (11758188_x_at) / RFU NKD1 (11759106_at) / Fold change /veh NKD1 (11759106_at) / RFU SRD5A1 (11742802_a_at) / Fold change /veh SRD5A1 (11742802_a_at) / RFU TPSAB1 /// TPSB2 (11721975_s_at) / Fold change /veh TPSAB1 /// TPSB2 (11721975_s_at) / RFU GSTM3 (11746129_a_at) / Fold change /veh GSTM3 (11746129_a_at) / RFU IL23R (11737362_x_at) / Fold change /veh IL23R (11737362_x_at) / RFU TMEM51 (11727254_a_at) / Fold change /veh TMEM51 (11727254_a_at) / RFU PIWIL2 (11732686_x_at) / Fold change /veh PIWIL2 (11732686_x_at) / RFU ORM1 (11744905_x_at) / Fold change /veh ORM1 (11744905_x_at) / RFU CCDC152 (11743942_at) / Fold change /veh CCDC152 (11743942_at) / RFU ECM1 (11717891_a_at) / Fold change /veh ECM1 (11717891_a_at) / RFU IL23R (11748794_a_at) / Fold change /veh IL23R (11748794_a_at) / RFU TNFAIP8L3 (11732012_x_at) / Fold change /veh TNFAIP8L3 (11732012_x_at) / RFU MBOAT4 (11741988_at) / Fold change /veh MBOAT4 (11741988_at) / RFU 11764193_at / Fold change /veh 11764193_at / RFU TMEM53 (11763286_at) / Fold change /veh TMEM53 (11763286_at) / RFU MAGEB2 (11727129_at) / Fold change /veh MAGEB2 (11727129_at) / RFU TMEM200A (11744735_a_at) / Fold change /veh TMEM200A (11744735_a_at) / RFU CCDC152 (11751479_a_at) / Fold change /veh CCDC152 (11751479_a_at) / RFU FAM211A (11726209_a_at) / Fold change /veh FAM211A (11726209_a_at) / RFU RGS16 (11746705_a_at) / Fold change /veh RGS16 (11746705_a_at) / RFU VCAN (11755009_s_at) / Fold change /veh VCAN (11755009_s_at) / RFU RHOB (11743442_s_at) / Fold change /veh RHOB (11743442_s_at) / RFU RGS16 (11720943_a_at) / Fold change /veh RGS16 (11720943_a_at) / RFU RGS16 (11720944_at) / Fold change /veh RGS16 (11720944_at) / RFU, VPS4B / Fold change vs veh, VPS4B / RFU, CREB1 / Fold change vs veh, CREB1 / RFU, DNAJC13 / Fold change vs veh, DNAJC13 / RFU, GNAQ / Fold change vs veh, GNAQ / RFU, CDK5R1 / Fold change vs veh, CDK5R1 / RFU, ZRANB3 / Fold change vs veh, ZRANB3 / RFU, CUL4A / Fold change vs veh, CUL4A / RFU, CCNY / Fold change vs veh, CCNY / RFU, UFL1 / Fold change vs veh, UFL1 / RFU, COG3 / Fold change vs veh, COG3 / RFU, DIAPH2 / Fold change vs veh, DIAPH2 / RFU, SKA2 / Fold change vs veh, SKA2 / RFU, AFF3 / Fold change vs veh, AFF3 / RFU, LMF1 / Fold change vs veh, LMF1 / RFU, IPO11 / Fold change vs veh, IPO11 / RFU, DFFB / Fold change vs veh, DFFB / RFU, FOXP1 / Fold change vs veh, FOXP1 / RFU, CARD8 / Fold change vs veh, CARD8 / RFU, STRN3 / Fold change vs veh, STRN3 / RFU, ADK / Fold change vs veh, ADK / RFU, RASSF2 / Fold change vs veh, RASSF2 / RFU, WIPF1 / Fold change vs veh, WIPF1 / RFU, LARP1B / Fold change vs veh, LARP1B / RFU, RASA1 / Fold change vs veh, RASA1 / RFU, RB1 / Fold change vs veh, RB1 / RFU, PPFIA1 / Fold change vs veh, PPFIA1 / RFU, MAT2A / Fold change vs veh, MAT2A / RFU, CCT5 / Fold change vs veh, CCT5 / RFU, WDR92 / Fold change vs veh, WDR92 / RFU, CUX1 / Fold change vs veh, CUX1 / RFU, TTC7A / Fold change vs veh, TTC7A / RFU, TMEM135 / Fold change vs veh, TMEM135 / RFU, DEPTOR / Fold change vs veh, DEPTOR / RFU, CPM / Fold change vs veh, CPM / RFU, DNAJB6 / Fold change vs veh, DNAJB6 / RFU, CACNA2D3 / Fold change vs veh, CACNA2D3 / RFU, DTX4 / Fold change vs veh, DTX4 / RFU, TFCP2 / Fold change vs veh, TFCP2 / RFU, GMCL1 /// GMCL1P1 / Fold change vs veh, GMCL1 /// GMCL1P1 / RFU, AEBP2 / Fold change vs veh, AEBP2 / RFU, SNHG1 /// SNORD22 /// SNORD25 /// SNORD26 /// SNORD27 /// SNORD28 /// SNORD29 /// SNORD31 / Fold change vs veh, SNHG1 /// SNORD22 /// SNORD25 /// SNORD26 /// SNORD27 /// SNORD28 /// SNORD29 /// SNORD31 / Fold change (Aza/veh), C12orf56 (ProbeSet 11735607_a_at) / Fold change (ACY-1035/veh), C12orf56 (ProbeSet 11735607_a_at) / Fold change (Aza/veh), FGFR1OP (ProbeSet 11751329_s_at) / Fold change (ACY-1035/veh), FGFR1OP (ProbeSet 11751329_s_at) / Fold change (Aza/veh), VPS36 (ProbeSet 11739960_a_at) / Fold change (ACY-1035/veh), VPS36 (ProbeSet 11739960_a_at) / RFU SYPL1 (11715823_x_at) / Fold change /veh SYPL1 (11715823_x_at) / RFU IGFBP7 (11715501_s_at) / Fold change /veh IGFBP7 (11715501_s_at) / RFU REEP3 (11722064_at) / Fold change /veh REEP3 (11722064_at) / RFU IGLL1 (11728026_x_at) / Fold change /veh IGLL1 (11728026_x_at): dose or concentration left out as unconfirmed
Conditions: MV-4-11 cells, 48 hours

Structure (SMILES): Nc1ccc(-c2cccs2)cc1NC(=O)c1ccc2c(c1)cc(C1CC1)n2CCN1CCOCC1 [ACY-1035]
- RFU NKD1 (11759106_at): 19.24 RFU
